# Measurements published in patent US20020086895A1, “Methods of treating fungal infections” (priority 1985, published 2002).
# Like-named read-outs stand apart in the source and are kept apart here.
# Assays:
# [1] = tested on: nine isolates (Aspergillus and Candida); assay: Standard controls of the antifungal assays of Example 12; format: cell-based
# Procedure: (§1) Test compounds were tested against nine isolates in an eight-point dose response assay ranging from 50 μg/ml to 0.39 μg/ml. Aspergillus MIC's (minimum inhibitory concentrations) were scored visually after 48 and 72 hours at 37° C. […] Amphotericin B (2.5 μg/ml) and 5-flucytosine (2.0 μg ml) were standard controls for each antifungal assay. […] The results are shown below in Table 4, MIC values in μg/ml after 72 hours. HFF toxicity was analyzed after a 24 hour incubation at 37° C. (5% CO2). MTS/PMS was added, and the sample absorbance was read at 450 nm.
# [2] = tested on: Candida albicans (strain ATCC #90028); assay: Inhibition of Candida spp. culture (XTT); format: cell-based; settings: for C. albicans minimum inhibitory concentration (MIC) compared with reported ranges: assay validation; for MIC: Candida albicans, ATCC90028, C. albicans, XTT, 22 hours at 35° C., read-out: antifungal MIC
# Procedure: (§2) Candida albicans (strain ATCC #90028), Candida krusei (strain ATCC #90030), and Torulopsis (Candida) glabrata (strain ATCC #6258) were subcultured from cryopreserved stocks onto sabourand dextrose agar plates. Blastoconidia were suspended into RPMI-MOPS (media) and inoculated (500 cfu/well) into 96-well plates containing test compounds in a final volume of 100 μL/well. After 22 hours at 35° C., 25 μL of XTT (2,3-bis(2-methoxy-4-nitro-5-sulfophenyl)-5-[(phenylamino)carbonyl]-2H-tetrazolium hydroxide), (100 μg/mL) with PMS (phenazine methyl sulfate, 5 μM) were added to each well, followed by 2 hours of shaking. Growth was assessed spectrophotometrically by measuring the appearance of soluble formazan stain at 450 nm using an Emax microplate reader.
# [3] = tested on: Candida albicans strain #64, sensitive to fluconazole; assay: Fluconazole-sensitive candidiasis in mice; format: in vivo
# Procedure: Immunocompetent mice (ICR, Sprague-Dawley, Indianapolis, Ind.) were infected with a pathogenic strain (strain #64) of Candida albicans which is sensitive to fluconazole. […] […] […] In addition, the organ fungal load (in CFU) was measured at day 30.
# [4] = tested on: C. albicans UTR-14, fluconazole-resistant clinical isolate; assay: Fluconazole-resistant candidiasis in mice; format: in vivo
# A. funigatis ATCC8001 = assay: Inhibition of fungal growth, MIC scored visually; format: cell-based; settings: Aspergillus fumigatus
# Procedure: as §1
# C. tropicalis ATCC75O = assay: Inhibition of fungal growth, MIC scored visually; format: cell-based; settings: Candida tropicalis, 24 hour incubation at 35° C., read-out: Minimum Inhibitory Concentration
# Procedure: as §1
# A. niger = assay: Inhibition of fungal growth, MIC scored visually; format: cell-based; settings: Aspergillus niger
# Procedure: as §1
# A.funigatus 94-2766 = assay: Inhibition of fungal growth, MIC scored visually; format: cell-based; settings: Aspergillus fumigatus, 942766
# Procedure: as §1
# C. krusei ATCC6258 = assay: Inhibition of fungal growth, MIC scored visually; format: cell-based, Candida krusei; settings: Pichia kudriavzevii, 24 hour incubation at 35° C., read-out: Minimum Inhibitory Concentration
# Procedure: as §1
# [5] = tested on: C. parapsilosis ATCC90018; assay: Inhibition of fungal growth, MIC scored visually; format: cell-based, Candida parapsilosis; settings: Lodderomyces parapsilosis, 24 hour incubation at 35° C., read-out: Minimum Inhibitory Concentration
# Procedure: as §1
# [6] = tested on: C. glabrata (Fluconazole resistant); assay: Inhibition of fungal growth, MIC scored visually; format: cell-based, Candida glabrata; settings: Nakaseomyces glabratus; fluconazole resistant clinical isolate; 24 hour incubation at 35° C.; read-out: Minimum Inhibitory Concentration
# C. albicans ATCC90028 = assay: Inhibition of fungal growth, MIC scored visually; format: cell-based; settings: Candida albicans, 24 hour incubation at 35° C., read-out: Minimum Inhibitory Concentration
# [7] = tested on: Staphylococcus aureus KLE820; assay: Activity of selected aurones against Staphylococcus aureus KLE820; format: cell-based; settings: read-out: % Inhibition of growth at 10 ug/ml
# Text: Compounds described herein also have activity against bacteria.
# [8] = tested on: chitin synthase II (CS II); assay: Inhibition of chitin synthase, CS II only; format: biochemical, C. albicans
# Procedure: Plasma membrane was purified from C. albicans (ATCC #90028) according to Orlean, J. Biol. Chem. 262:5732-5-1987. To minimize proteolysis during plasma membrane preparation, 1% fetal calf serum was incorporated into the homogenization buffer. Plasma membrane was activated by trypsin (125 μg/mg protein) in the presence of 1.5 mM UDP-GLcNAc(c) at 25° C. for 5 minutes. The reaction was stopped by the addition of soybean trypsin inhibitor. The activated membranes (0.125 mg membrane protein/mL) were […], 40 mM GlcNAc, 4 mM ^14C-UDP-GlcNAc (specific: 0.25 mCi/mmol) (New England Nuclear Boston, Mass.) and plant extract (100 μg/mL). The incubation was carried out at 37° C. for 1 hour and terminated with the addition of trichloroacetic acid (10%). The reaction mixture was transferred to a pre-wetted glass fiber filter. The filter was washed with 4×200 μL of a 7:3 solution of 95% EtOH and 1 M acetic acid. The filter was dried under a heat lamp and counted in a Microbeta counter (Wallac, Gaithersburg, Md.) after the addition of 25 μL OPTIPHASE SUPERMIX™ (Wallac) scintillation fluid. Nikkomycin Z and Polyoxin D were used as positive controls (Calbiochem, San Diego, Calif.). Vehicle control was carried out with the same amount of DMSO (2%).
# The SOP assay described above was modified to pH 7.5 and 5 mM MgCl2 (instead of CoCl2). […]
# C. albicans = assay: Inhibition of C. albicans with drug combinations; format: cell-based, Candida albicans
# Procedure: as §2
# Formula (V) was tested in combination with known antifungal agents amphotericin B and fluconazole. A 10 mg/ml stock solution of formula (V) was diluted in 100% DMSO and stored at −80° C. Fluconazole and Amphotericin B were similarly prepared and stored as a 8 mg/ml stock solution, and a 1.25 mg/ml stock solution, respectively. Each known antifungal agent was added (2 μl/well), then 2 μl/well of the formula (V) solution was added to the designated wells. The remainder of the experiment follows Example 21.
# [9] = target: T1, chitin synthase III (CS III) (Candida albicans, UniProt P30573); assay: Inhibition of chitin synthase, CS III only; format: biochemical, C. albicans
# T1 construct: endogenous in cells
# T1 sequence (P30573 whole entry): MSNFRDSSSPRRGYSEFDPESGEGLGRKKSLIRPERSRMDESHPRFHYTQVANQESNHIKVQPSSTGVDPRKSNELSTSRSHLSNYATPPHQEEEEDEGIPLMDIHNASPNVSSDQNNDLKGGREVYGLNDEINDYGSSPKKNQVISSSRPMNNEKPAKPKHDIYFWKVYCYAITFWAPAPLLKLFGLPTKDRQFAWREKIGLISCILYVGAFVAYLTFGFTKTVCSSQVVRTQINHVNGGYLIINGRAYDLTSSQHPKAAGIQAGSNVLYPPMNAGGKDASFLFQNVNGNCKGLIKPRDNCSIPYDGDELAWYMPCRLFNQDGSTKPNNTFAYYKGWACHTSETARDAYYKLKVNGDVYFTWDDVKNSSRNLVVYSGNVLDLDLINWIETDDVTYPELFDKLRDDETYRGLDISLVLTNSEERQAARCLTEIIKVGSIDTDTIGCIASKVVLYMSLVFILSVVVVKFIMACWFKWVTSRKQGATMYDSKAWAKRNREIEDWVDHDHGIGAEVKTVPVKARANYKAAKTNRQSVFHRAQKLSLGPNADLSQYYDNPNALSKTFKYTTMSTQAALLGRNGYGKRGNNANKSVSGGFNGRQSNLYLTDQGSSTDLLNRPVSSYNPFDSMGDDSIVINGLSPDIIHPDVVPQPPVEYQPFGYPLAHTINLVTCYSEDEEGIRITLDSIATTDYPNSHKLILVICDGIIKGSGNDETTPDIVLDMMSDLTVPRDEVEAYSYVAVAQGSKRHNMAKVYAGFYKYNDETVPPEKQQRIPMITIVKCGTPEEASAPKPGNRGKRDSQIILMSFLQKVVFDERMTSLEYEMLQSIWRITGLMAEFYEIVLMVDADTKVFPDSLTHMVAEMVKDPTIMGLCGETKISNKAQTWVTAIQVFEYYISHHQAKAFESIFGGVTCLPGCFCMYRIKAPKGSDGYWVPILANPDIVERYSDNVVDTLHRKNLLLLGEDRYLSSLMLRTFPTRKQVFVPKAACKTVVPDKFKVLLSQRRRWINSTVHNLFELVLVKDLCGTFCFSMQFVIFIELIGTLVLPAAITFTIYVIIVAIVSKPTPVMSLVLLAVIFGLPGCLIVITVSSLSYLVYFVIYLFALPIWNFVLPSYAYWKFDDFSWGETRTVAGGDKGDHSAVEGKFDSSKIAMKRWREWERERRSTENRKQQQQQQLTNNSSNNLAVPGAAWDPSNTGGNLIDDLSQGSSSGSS
# Procedure: Plasma membrane was purified from C. albicans (ATCC #90028) according to Orlean, J. Biol. Chem. 262:5732-5-1987. To minimize proteolysis during plasma membrane preparation, 1% fetal calf serum was incorporated into the homogenization buffer. Plasma membrane was activated by trypsin (125 μg/mg protein) in the presence of 1.5 mM UDP-GLcNAc(c) at 25° C. for 5 minutes. The reaction was stopped by the addition of soybean trypsin inhibitor. The activated membranes (0.125 mg membrane protein/mL) were then assayed in a total of 50 μL reaction mixture containing 50 mM Tris-HCl (pH 8.0) 3 mM CoCl2, 40 mM GlcNAc, 4 mM ^14C-UDP-GlcNAc (specific: 0.25 mCi/mmol) (New England Nuclear Boston, Mass.) and plant extract (100 μg/mL). The incubation was carried out at 37° C. for 1 hour and terminated with the addition of trichloroacetic acid (10%). The reaction mixture was transferred to a pre-wetted glass fiber filter. The filter was washed with 4×200 μL of a 7:3 solution of 95% EtOH and 1 M acetic acid. The filter was dried under a heat lamp and counted in a Microbeta counter (Wallac, Gaithersburg, Md.) after the addition of 25 μL OPTIPHASE SUPERMIX™ (Wallac) scintillation fluid. Nikkomycin Z and Polyoxin D were used as positive controls (Calbiochem, San Diego, Calif.). Vehicle control was carried out with the same amount of DMSO (2%). […]
# [10] = tested on: Candida krusei (strain ATCC #90030); assay: Inhibition of Candida spp. culture (XTT); format: cell-based; settings: Pichia kudriavzevii, ATCC90030, C. krusei, 22 hours at 35° C., read-out: antifungal MIC
# Procedure: as §2
# [11] = tested on: Torulopsis (Candida) glabrata (strain ATCC #6258); assay: Inhibition of Candida spp. culture (XTT); format: cell-based; settings: T. (C.) glabrata, 22 hours at 35° C., read-out: antifungal MIC
# Procedure: as §2
smiles,measurement,setting,value
Nc1nc(=O)[nH]cc1F [5-flucytosine],inhibition by standard control,[1]; 2.0 μg ml,total inhibition
same,C. albicans minimum inhibitory concentration (MIC) compared with reported ranges,[2],within reported ranges
C[C@@H]1[C@H](O)[C@@H](C)/C=C/C=C/C=C/C=C/C=C/C=C/C=C/[C@H](O[C@@H]2O[C@H](C)[C@@H](O)[C@H](N)[C@@H]2O)C[C@@H]2O[C@](O)(C[C@@H](O)C[C@@H](O)[C@H](O)CC[C@@H](O)C[C@@H](O)CC(=O)O[C@H]1C)C[C@H](O)[C@H]2C(=O)O [Amphotericin B],inhibition by standard control,[1]; 2.5 μg/ml,total inhibition
same,C. albicans minimum inhibitory concentration (MIC) compared with reported ranges,[2],within reported ranges
"OC(Cn1cncn1)(Cn1cncn1)c1ccc(F)cc1F [fluconazole, reference compound]",percent survival after 30 days,"[3]; 40 mg per kg body weight, twice a day",about 30%
same,C. albicans minimum inhibitory concentration (MIC) compared with reported ranges,[2],within reported ranges
same,percent survival after 20 days,[4]; 40 mg per kg body weight p.o. (twice daily),0%
CC(C)(C)c1ccc(/C=C2\Oc3cc(O)cc(O)c3C2=O)cc1 [Formula S02],MIC,"A. funigatis ATCC8001; ATCC8001, ATCC8001 (X2), value outside parentheses, read-out: Minimum Inhibitory Concentration",6.25 µg/mL
same,MIC,"A. funigatis ATCC8001; ATCC8001, read-out: Minimum Inhibitory Concentration (value in parentheses), ATCC8001 (X2), value in parentheses, not defined (scored after 48 and 72 hours)",> 50 µg/mL
same,MIC,"A. funigatis ATCC8001; ATCC8001, read-out: Minimum Inhibitory Concentration, ATCC8001 (X1), 37° C.",12.5 µg/mL
same,MIC,C. tropicalis ATCC75O,12.5 µg/mL
same,MIC,"A. niger; clinical isolate, value outside parentheses, read-out: Minimum Inhibitory Concentration",> 50 µg/mL
same,MIC,"A. niger; value in parentheses, not defined (scored after 48 and 72 hours), read-out: Minimum Inhibitory Concentration (value in parentheses)",> 50 µg/mL
same,MIC,"A.funigatus 94-2766; 94-2766, value in parentheses, not defined (scored after 48 and 72 hours), read-out: Minimum Inhibitory Concentration (value in parentheses)",> 50 µg/mL
same,MIC,"A.funigatus 94-2766; 94-2766 clinical isolate, value outside parentheses, read-out: Minimum Inhibitory Concentration",6.25 µg/mL
same,MIC,C. krusei ATCC6258,6.25 µg/mL
same,MIC,[5],6.25 µg/mL
same,MIC,[6],0.39 µg/mL
same,MIC,C. albicans ATCC90028,12.5 µg/mL
O=C1/C(=C/c2cc(Cl)cc(Cl)c2O)Oc2cc(O)c(Cc3ccccc3)c(O)c21,inhibition at 10 µg/mL,[7],100%
O=C1/C(=C/c2cc([N+](=O)[O-])ccc2O)Oc2cc(O)c(Cc3ccccc3)c(O)c21,inhibition at 10 µg/mL,[7],100%
"CC(C)=CCc1c(O)cc2c(c1O)C(=O)C(=Cc1ccc(O)c(O)c1)O2 [Formula (V), 5-prenylaureusidin]",IC50,[8],223 µM
same,combination effect with Amphotericin B,C. albicans; in combination with Amphotericin B,apparent synergy
same,combination effect with fluconazole,C. albicans; in combination with fluconazole,apparent additivity
same,IC50,[9],107 µM
same,percent survival after 30 days,"[3]; 20 mg per kg body weight i.p., once a day for 10 days",about 70%
same,percent survival after 30 days,"[3]; 40 mg per kg body weight p.o., once a day for 10 days",about 60%
same,fungal load reduction in each organ,[3]; day 30,over 99%
same,MIC,[10],6.25 µg/mL
same,MIC,[2],12.5 µg/mL
same,MIC,[11],6.25 µg/mL
same,percent survival after 20 days,[4]; 40 mg per kg body weight p.o.,about 80%
"C[C@@H]([C@H](N)C(=O)N[C@H](C(=O)O)[C@H]1O[C@@H](n2ccc(=O)[nH]c2=O)[C@H](O)[C@@H]1O)[C@H](O)c1ccc(O)cn1 [Nikkomycin Z, reference compound]",CS II remaining,"[8]; 10 μM Nikkomycin Z, pH 7.5, 5 mM MgCl2",75%
same,C. albicans minimum inhibitory concentration (MIC) compared with reported ranges,[2],within reported ranges
C=CCc1c(O)cc2c(c1O)C(=O)/C(=C/c1ccc(-c3ccccc3C(F)(F)F)o1)O2,inhibition at 10 µg/mL,[7],76.5%
CCCCCOc1ccc(/C=C2\Oc3cc(O)cc(O)c3C2=O)cc1,inhibition at 10 µg/mL,[7],98.6%
CC(C)=CCc1c(O)cc2c(c1O)C(=O)/C(=C\c1cc(O)c(O)cc1-c1c(O)cc3c(c1O)C(=O)/C(=C\c1ccc(O)c(O)c1)O3)O2 [Formula (VI)],MIC,[10],7.48 µg/mL
same,MIC,[2],25 µg/mL
same,MIC,[11],1.74 µg/mL
COc1ccc(/C=C2\Oc3cc(O)c(C/C=C/c4ccccc4)c(O)c3C2=O)cc1,inhibition at 10 µg/mL,[7],83%
